# What was measured:
# [1] = target: Cannabinoid receptor 1 (Rattus norvegicus, UniProt P20272); experiment: Binding affinity against rat brain Cannabinoid receptor 1 using [3H]CP-55940
# [2] = target: Cannabinoid receptor 2 (Mus musculus, UniProt P47936); experiment: Compound was tested for its binding affinity against mouse spleen Cannabinoid receptor 2 using [3H]CP-55940 as radioligand; type: tissue-based
# Chain of Cannabinoid receptor 2 (P47936 whole entry): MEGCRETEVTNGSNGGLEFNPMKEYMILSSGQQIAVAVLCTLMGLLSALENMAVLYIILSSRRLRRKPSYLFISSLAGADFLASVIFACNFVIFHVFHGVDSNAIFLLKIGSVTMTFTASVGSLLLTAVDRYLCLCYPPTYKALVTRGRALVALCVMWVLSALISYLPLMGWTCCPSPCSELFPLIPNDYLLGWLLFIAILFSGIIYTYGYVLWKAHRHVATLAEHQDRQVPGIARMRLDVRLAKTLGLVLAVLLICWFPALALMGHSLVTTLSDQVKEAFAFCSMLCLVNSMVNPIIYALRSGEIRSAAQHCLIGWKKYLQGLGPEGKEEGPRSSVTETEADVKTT
# Chain of Cannabinoid receptor 1 (P20272 whole entry): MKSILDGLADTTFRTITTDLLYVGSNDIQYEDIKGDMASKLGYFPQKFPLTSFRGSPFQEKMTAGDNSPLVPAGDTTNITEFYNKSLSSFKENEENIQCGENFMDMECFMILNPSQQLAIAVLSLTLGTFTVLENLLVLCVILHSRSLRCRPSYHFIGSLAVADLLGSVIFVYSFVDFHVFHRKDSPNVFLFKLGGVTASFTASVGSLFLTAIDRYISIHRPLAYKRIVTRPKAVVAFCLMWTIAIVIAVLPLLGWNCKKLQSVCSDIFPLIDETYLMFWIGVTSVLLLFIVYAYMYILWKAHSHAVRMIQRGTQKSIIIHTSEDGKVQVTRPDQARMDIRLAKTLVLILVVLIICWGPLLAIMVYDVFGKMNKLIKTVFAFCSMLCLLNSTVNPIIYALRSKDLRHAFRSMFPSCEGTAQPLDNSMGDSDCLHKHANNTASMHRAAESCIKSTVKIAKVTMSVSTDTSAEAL
Compound,Ki [1] [nM],Ki [2] [nM]
CCCCCCC1(c2cc(O)c3c(c2)OC(C)(C)[C@@H]2CC=C(C)C[C@@H]32)SCCCS1,1.8,3.6
CCCCCCC1(c2cc(O)c3c(c2)OC(C)(C)[C@@H]2CC=C(C)C[C@@H]32)Sc2ccccc2S1,56.9,257
CC1=CC[C@@H]2[C@@H](C1)c1c(O)cc(C3SCCS3)cc1OC2(C)C,168,103
CCCCCCC1(c2cc(O)c3c(c2)OC(C)(C)[C@@H]2CC=C(C)C[C@@H]32)OCCO1,0.52,0.22
CCCCCCCc1cc(O)c2c(c1)OC(C)(C)[C@@H]1CC=C(C)C[C@@H]21,22,
CCCCCCC1(c2cc(O)c3c(c2)OC(C)(C)[C@@H]2CC=C(C)C[C@@H]32)CCCC1,0.45,1.92
CCCCCCC1(c2cc(O)c3c(c2)OC(C)(C)[C@@H]2CC=C(C)C[C@@H]32)SC(C)C(C)S1 (stereo partly drawn),32.3,19.7

# From ChEMBL document CHEMBL1145850, “Pharmacophoric requirements for the cannabinoid side chain. Probing the cannabinoid receptor subsite at C1'” (J Med Chem, 2003)
